Test results published in article PMC6412119 (2019).

System: c-MYC Pu22-G10>T10 (DNA, G4) TGAGGGTGGTTAGGGTGGGTAA
Assay: fluorescence light-up
Settings: 100 mM KCl; 10 mM potassium phosphate pH 7.0; 0.5 μM each; weak response

For `C(=NNc1nc(Nc2ccccc2)nc(Nc2ccccc2)n1)c1c2ccccc2cc2ccccc12`, the binding was “weak”.
